Experimental data: patent US10669537B2, “Mutagenizing intracellular nucleic acids” (priority 2016, dated 2020)
Read-outs that look alike come from different tables or passages of the source.

What was measured:
[1] = system: Saccharomyces cerevisiae BY4741 URA3+; test: 5-FOA resistance frequency after URA3 mutagenesis; type: cell-based; conditions: one cycle of URA3 soft-randomized oligo pool mutagenesis; 5-FOA SD agar plates
From the text: To perform mutagenesis without necessitating additional genomic modifications and thus keeping the flexibility of the prokaryotic, pORTMAGE-based approach, the wild-type yeast homologous recombination system was employed to set-up overlapping, soft-randomized oligo pool-mediated mutagenesis. As the target, the endogenous URA3 gene in Saccharomyces cerevisiae BY4741 URA3+(SEQ ID NO:221), encoding orotidine 5-phosphate decarboxylase was chosen. Loss-of-function URA3 mutants can be readily selected based on their 5-Fluoroorotic Acid (5-FOA)-resistant phenotype on 5-FOA containing agar plates (DiCarlo et al. 2013). Therefore, mutagenesis was assayed as the fraction of resistant cells towards 5-FOA in diversified cell populations compared with the frequency of an unmutagenized control. Using 11 overlapping spiked oligo pools (SEQ ID NO:200-SEQ ID NO:210), a single overlapping, soft-randomized oligo pool-mediated mutagenesis cycle was performed.
Specifically, overlapping, soft-randomized oligos for S. cerevisiae URA3 were designed to target the non-coding strand of URA3 (YEL021W, SEQ ID NO:221). Spiked oligonucleotides were synthesized as described in Example 1. Yeast-mutagenesis was performed by delivering oligonucleotides to S. cerevisiae BY4741 URA3+ cells by electroporation. […] As the next step, URA3 mutagenesis was assessed by measuring 5-fluoroorotic acid (5-FOA) resistance frequency. […]

[2] = system: parental Escherichia coli K-12 MG 1655
Method: Subsequently, the genotype of around 1000 resistant mutants was determined by High-Throughput (HT) SMRT sequencing.

[3] = system: E. coli K-12 MG1655; conditions: L28R
Method: As a measure of the effect of each individual genotype, relative IC75 values for each of the corresponding mutants were determined and compared to the IC75 of the wild-type.

[4] = system: E. coli K-12 MG1655; type: cell-based, Escherichia coli; conditions: ciprofloxacin two-fold higher than wild-type MIC, LB agar
Method: All four constituents were mutagenized along the full lengths of their corresponding protein-coding DNA regions in their native genomic context. Accordingly, a single round of rMAGE mutagenesis was performed in E. coli K-12 MG1655, using SEQ ID NO:37-SEQ ID NO:167.
However, ciprofloxacin also has lower binding affinity to the homologous DNA topoisomerase IV complex (Khodursky, Zechiedrich, and Cozzarelli 1995). Therefore, mutagenesis at the target sites was assayed by a ciprofloxacin frequency-of-resistance assay.

## O=C(O)c1[nH]c(=O)[nH]c(=O)c1F [5-FOA, 5-Fluoroorotic Acid]
[1]
  upregulation of the fraction of 5-FOA resistant cells compared to background level: 77 fold

## COc1cc(Cc2cnc(N)nc2N)cc(OC)c1OC [Trimethoprim, trimethoprim]
[2]
  growth on trimethoprim solid media: cannot grow
[3]; strain E. coli MG1655 1, folA C-58T, A26T, P39R
  Trimethoprim IC75 value: 1162 µg/mL
[3]; strain E. coli MG1655 2, folA C-58T, A26T, P39R
  Trimethoprim IC75 value: 1162 µg/mL
[3]; strain E. coli MG1655 3, folA C-58T, A26T, P39R
  Trimethoprim IC75 value: 1346 µg/mL
[3]; strain E. coli MG1655 4, folA C-58T, A26T, P39R
  Trimethoprim IC75 value: 1254 µg/mL
[3]; strain E. coli MG1655 5, folA C-58T, A26T, P39R
  Trimethoprim IC75 value: 1162 µg/mL
[3]; strain E. coli MG1655 6, folA C-58T, A26T, P39R
  Trimethoprim IC75 value: 1254 µg/mL
[3]; strain E. coli MG1655 7, folA C-58T
  Trimethoprim IC75 value: 448 µg/mL
[3]; strain E. coli MG1655 8, folA C-58T, T-74A, N147D
  Trimethoprim IC75 value: 448 µg/mL
[3]; strain E. coli MG1655 9, folA C-58T
  Trimethoprim IC75 value: 610 µg/mL
[3]; strain E. coli MG1655 10, folA C-58T
  Trimethoprim IC75 value: 610 µg/mL
[3]; strain E. coli MG1655 11, folA C-58T
  Trimethoprim IC75 value: 518 µg/mL
[3]; strain E. coli MG1655 12, folA C-43T, C-58T, A26D, H45R
  Trimethoprim IC75 value: 794 µg/mL

## O=C(O)c1cn(C2CC2)c2cc(N3CCNCC3)c(F)cc2c1=O [ciprofloxacin]
[4]; cell population mutagenized at gyrA, gyrB, parC, parE
  frequency of ciprofloxacin resistant variants: 10^−4
[4]; non-mutagenised control cell populations
  frequency of ciprofloxacin resistant variants: 1.83*10^−7
